Columns and labels:
interleukin 6 (IL-6) = assay: Interleukin 6 (IL-6) induction in human whole blood; assay type: cell-based; details: 37° C., 20 h, AlphaLISA
Description: This example describes a method for assaying interleukin 6 induction by compounds disclosed in this specification.
Compounds diluted in DMSO were transferred to individual wells of a Matrix Technologies clear, V-bottom 384-well plate using ECHO acoustic liquid handling technology (25 nL per well). Human whole-blood samples (25 uL) were added to each well using a CyBio FeliX liquid handling instrument. The plate was shaken on a plate shaker for three min before the reaction mixtures at 37° C. for 20 h. Basel RPMI 1640 medium (supplemented with L-glutamine) was then added to each well (25 uL per well) prior to liberating plasma from each sample by centrifugation (450×g, 5 min, ambient temperature). Treated plasma samples (3 uL) were subsequently transferred to individual wells of a white, shallow, 384-well ProxiPlate (Perkin Elmer) using the FeliX liquid handling instrument and their interleukin 6 levels were measured using AlphaLISA technology as described by the manufacturer, PerkinElmer. Data analyses software was used to determine compound EC50 values where the baseline was established using average DMSO values and 100% induction established using reference compound values at the highest concentration tested. EC50's can be determined with software such as Graphpad Prism™.

human TLR7 = target: T1, human TLR7 (Homo sapiens, UniProt Q9NYK1); assay: HEK-Blue TLR7 reporter assay (TLR7 agonism); assay type: cell-based; details: HEK-Blue TLR7 cells, human TLR7-SEAP reporter, 18 h treatment
T1 construct: host or cells: HEK-Blue TLR7 cells (engineered human embryonic kidney cells)
T1 sequence (Q9NYK1 27-1049): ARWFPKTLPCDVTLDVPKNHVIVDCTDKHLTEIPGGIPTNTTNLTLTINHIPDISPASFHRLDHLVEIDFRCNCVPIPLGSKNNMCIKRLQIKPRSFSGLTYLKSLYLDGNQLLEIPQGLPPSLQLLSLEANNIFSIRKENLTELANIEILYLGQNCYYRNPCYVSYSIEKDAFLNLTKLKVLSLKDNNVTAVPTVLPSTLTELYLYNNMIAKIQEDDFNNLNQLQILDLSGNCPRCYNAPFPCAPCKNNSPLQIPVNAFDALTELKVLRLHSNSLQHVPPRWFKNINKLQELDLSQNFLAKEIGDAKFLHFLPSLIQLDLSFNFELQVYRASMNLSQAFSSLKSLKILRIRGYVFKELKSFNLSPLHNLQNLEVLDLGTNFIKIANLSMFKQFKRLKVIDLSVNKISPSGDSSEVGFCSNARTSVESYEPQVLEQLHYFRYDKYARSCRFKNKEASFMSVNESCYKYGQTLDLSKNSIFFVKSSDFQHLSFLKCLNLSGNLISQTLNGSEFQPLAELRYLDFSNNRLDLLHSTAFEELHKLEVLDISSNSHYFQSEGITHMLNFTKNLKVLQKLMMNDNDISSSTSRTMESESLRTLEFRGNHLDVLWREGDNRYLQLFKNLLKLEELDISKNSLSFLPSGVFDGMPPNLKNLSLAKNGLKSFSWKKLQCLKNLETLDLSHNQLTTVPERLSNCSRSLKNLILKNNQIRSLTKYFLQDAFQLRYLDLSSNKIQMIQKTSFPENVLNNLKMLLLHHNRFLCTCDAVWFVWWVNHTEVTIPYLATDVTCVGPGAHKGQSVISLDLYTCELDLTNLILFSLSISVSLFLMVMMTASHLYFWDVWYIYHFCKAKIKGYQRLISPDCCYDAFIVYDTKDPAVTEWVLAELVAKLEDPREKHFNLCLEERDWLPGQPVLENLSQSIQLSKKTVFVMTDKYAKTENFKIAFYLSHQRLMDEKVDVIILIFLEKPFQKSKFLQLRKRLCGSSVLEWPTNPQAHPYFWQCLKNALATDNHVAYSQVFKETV
Description: This example describes a method for assaying TLR7 agonist activity of the compounds disclosed in this specification.
HEK-Blue™ TLR7 cells were added to each well of a 384-well tissue-culture plate (15,000 cells per well) and incubated 16-18 h at 37° C., 5% CO2. Compounds (100 nl) were dispensed into wells containing the HEK-Blue™ TLR cells and the treated cells were incubated at 37° C., 5% CO2. After 18 h treatment ten microliters of freshly-prepared Quanti-Blue™ reagent (Invivogen) was added to each well, incubated for 30 min (37° C., 5% CO2) and SEAP levels measured using an Envision plate reader (OD=620 nm).

IFN-α = details: fold less potent than the corresponding purine-8-one compound; cited from earlier work

EC50 (interleukin 6 (IL-6)) [nM]	EC50 (human TLR7) [nM]	SMILES	potency less than that of the corresponding purine-8-one compound, as measured by IFN-α induction (IFN-α) [×]
37	5.4	CCCCOc1nc(N)c2nc(O)n(Cc3ccc4c(c3)nnn4CCO)c2n1 [Ia-01]	–
53	26	CCCCOc1nc(N)c2nc(O)n(Cc3ccc4c(c3)nnn4CCCl)c2n1 [Ia-02]	–
16.8	2.3	CCCCNCCn1nnc2cc(Cn3c(O)nc4c(N)nc(OCCCC)nc43)ccc21 [Ia-03]	–
15.3	4	CCCCOc1nc(N)c2nc(O)n(Cc3ccc4c(c3)nnn4CCNC3CC3)c2n1 [Ia-04]	–
22.5	0.9	CCCCOc1nc(N)c2nc(O)n(Cc3ccc4c(c3)nnn4CCNC3CCC3)c2n1 [Ia-05]	–
56.2	11	CCCCOc1nc(N)c2nc(O)n(Cc3ccc4c(c3)nnn4CCNC3COC3)c2n1 [Ia-06]	–
19.7	2.4	CCCCOc1nc(N)c2nc(O)n(Cc3ccc4c(c3)nnn4CCNCC3COC3)c2n1 [Ia-07]	–
–	113	CCCCOc1nc(N)c2nc(O)n(Cc3ccc4c(c3)nnn4CCNC3CN(C(=O)OC(C)(C)C)C3)c2n1 [Ia-08]	–
44	24	CCCCOc1nc(N)c2nc(O)n(Cc3ccc4c(c3)nnn4CCNCc3ccccc3)c2n1 [Ia-09]	–
18.2	7.2	CCCCOc1nc(N)c2nc(O)n(Cc3ccc4c(c3)nnn4CCNCc3ccncc3)c2n1 [Ia-10]	–
–	–	CCCCOc1nc(N)c2c(n1)N(Cc1cccc(CN3CCCC3)c1)CC(=O)N2 [Vesatolimod, vesatolimod]	100
